This is an account of results in article PMC4770715, “LIM kinase inhibitors disrupt mitotic microtubule organization and impair tumor cell proliferation” (Oncotarget, 2015).

Each structure is given as a SMILES string.

Among the targets are MELK (Homo sapiens, UniProt Q14680); ERN1 (Homo sapiens, UniProt O75460); PIK3CA(E545K) (Homo sapiens, UniProt P42336, E545K); MAST1 (Homo sapiens, UniProt Q9Y2H9); PRKCD (Homo sapiens, UniProt Q05655); NEK6 (Homo sapiens, UniProt Q9HC98); PAK2 (Homo sapiens, UniProt Q13177); PRKG1 (Homo sapiens, UniProt Q13976); EPHA8 (Homo sapiens, UniProt P29322); CAMK2D (Homo sapiens, UniProt Q13557); MET (Homo sapiens, UniProt P08581).

Holding throughout (assay): biochemical
What all share (parameters): KINOMEscan active-site competition binding, percent of control (100 = no competition)
What all share (details): competition binding, percent control

The next test concerns the target T1, MKK7 (Homo sapiens, UniProt O14733).
T1 construct: gene MAP2K7

The target of test [1] is T2, JAK2(JH1domain-catalytic) (Homo sapiens, UniProt O60674).
T2 construct: JH1domain-catalytic

The target in test [2] is T3, RPS6KA5(Kin.Dom.1-N-terminal) (Homo sapiens, UniProt O75582).
T3 construct: Kin.Dom.1-N-terminal

The next test deals with T4, MINK (Homo sapiens, UniProt Q8N4C8).
T4 construct: gene MINK1

A further test concerns the target T5, BRK (Homo sapiens, UniProt Q13882).
T5 construct: gene PTK6

In another test the target is T6, PIP5K2B (Homo sapiens, UniProt P78356).
T6 construct: gene PIP4K2B

The next test concerns the target T7, MST2 (Homo sapiens, UniProt Q13188).
T7 construct: gene STK3

In another test the target is T8, LOK (Homo sapiens, UniProt O94804).
T8 construct: gene STK10

A further test addresses T9, DCAMKL1 (Homo sapiens, UniProt O15075).
T9 construct: gene DCLK1

The target in test [3] is T10, ABL1(M351T)-phosphorylated (Homo sapiens, UniProt P00519, M351T).
T10 construct: phosphorylated

For a further test, the target named is T11, p38-beta (Homo sapiens, UniProt Q15759).
T11 construct: gene MAPK11

In another test the target is T12, PFPK5(P.falciparum) (Plasmodium falciparum, UniProt P61075).
T12 construct: gene CRK2

Chain of PRKG1 (Q13976 whole entry): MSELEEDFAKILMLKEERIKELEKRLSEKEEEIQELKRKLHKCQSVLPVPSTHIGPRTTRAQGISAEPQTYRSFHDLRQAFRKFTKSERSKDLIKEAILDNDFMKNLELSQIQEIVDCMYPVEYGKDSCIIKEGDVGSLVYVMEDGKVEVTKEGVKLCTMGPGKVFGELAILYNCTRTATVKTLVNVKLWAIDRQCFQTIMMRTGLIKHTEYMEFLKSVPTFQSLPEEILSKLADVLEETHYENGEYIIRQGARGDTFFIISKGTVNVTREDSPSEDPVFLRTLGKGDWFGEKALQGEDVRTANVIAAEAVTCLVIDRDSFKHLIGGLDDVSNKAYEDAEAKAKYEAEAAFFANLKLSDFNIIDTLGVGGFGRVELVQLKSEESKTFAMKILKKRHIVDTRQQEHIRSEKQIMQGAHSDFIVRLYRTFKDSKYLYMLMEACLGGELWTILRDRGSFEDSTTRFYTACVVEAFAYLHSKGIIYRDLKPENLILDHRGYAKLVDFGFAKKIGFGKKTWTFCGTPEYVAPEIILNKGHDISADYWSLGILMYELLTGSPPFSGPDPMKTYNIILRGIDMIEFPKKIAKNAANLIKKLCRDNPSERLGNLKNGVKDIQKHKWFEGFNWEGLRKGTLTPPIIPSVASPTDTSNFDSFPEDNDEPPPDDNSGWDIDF
Chain of MELK (Q14680 whole entry): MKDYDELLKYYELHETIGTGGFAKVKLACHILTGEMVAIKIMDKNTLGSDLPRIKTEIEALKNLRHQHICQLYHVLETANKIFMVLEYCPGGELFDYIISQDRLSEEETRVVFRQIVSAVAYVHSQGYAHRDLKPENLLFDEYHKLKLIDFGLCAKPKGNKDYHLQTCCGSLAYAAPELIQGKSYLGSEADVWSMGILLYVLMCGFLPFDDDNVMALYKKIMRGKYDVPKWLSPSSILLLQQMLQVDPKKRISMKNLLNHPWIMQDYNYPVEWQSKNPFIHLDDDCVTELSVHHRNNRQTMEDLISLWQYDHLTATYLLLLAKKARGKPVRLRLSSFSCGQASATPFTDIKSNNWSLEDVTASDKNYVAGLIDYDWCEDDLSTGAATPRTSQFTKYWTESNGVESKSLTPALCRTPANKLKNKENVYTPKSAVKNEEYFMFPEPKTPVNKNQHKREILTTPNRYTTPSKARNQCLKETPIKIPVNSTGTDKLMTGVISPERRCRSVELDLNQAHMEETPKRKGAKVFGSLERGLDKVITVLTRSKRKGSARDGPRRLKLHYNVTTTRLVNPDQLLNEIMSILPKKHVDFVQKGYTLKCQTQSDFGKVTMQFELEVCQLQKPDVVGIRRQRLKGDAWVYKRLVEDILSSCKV
Chain of ERN1 (O75460 whole entry): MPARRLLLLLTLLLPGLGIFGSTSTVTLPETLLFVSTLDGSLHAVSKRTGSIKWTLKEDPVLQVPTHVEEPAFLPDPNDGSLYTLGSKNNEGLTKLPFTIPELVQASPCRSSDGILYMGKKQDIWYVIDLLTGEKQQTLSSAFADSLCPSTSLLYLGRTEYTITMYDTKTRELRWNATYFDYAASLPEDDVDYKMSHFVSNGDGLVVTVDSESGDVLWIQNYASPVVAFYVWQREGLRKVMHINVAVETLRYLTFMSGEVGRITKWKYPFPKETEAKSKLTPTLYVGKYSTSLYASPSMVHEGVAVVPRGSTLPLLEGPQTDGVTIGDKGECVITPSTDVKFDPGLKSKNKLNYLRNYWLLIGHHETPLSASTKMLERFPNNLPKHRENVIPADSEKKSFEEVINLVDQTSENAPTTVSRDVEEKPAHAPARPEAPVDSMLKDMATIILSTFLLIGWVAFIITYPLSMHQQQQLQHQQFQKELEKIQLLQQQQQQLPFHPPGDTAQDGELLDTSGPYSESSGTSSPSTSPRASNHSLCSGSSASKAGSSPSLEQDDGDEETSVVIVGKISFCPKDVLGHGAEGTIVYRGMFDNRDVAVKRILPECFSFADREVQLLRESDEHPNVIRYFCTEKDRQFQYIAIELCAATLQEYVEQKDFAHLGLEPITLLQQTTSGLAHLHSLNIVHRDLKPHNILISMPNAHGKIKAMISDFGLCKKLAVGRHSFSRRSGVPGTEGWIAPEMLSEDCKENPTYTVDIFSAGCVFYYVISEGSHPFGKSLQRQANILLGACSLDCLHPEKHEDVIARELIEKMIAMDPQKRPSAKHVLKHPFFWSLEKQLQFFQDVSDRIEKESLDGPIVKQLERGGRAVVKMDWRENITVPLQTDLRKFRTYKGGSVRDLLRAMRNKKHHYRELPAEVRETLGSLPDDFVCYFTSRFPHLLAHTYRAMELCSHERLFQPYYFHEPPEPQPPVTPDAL
T5 sequence (Q13882 whole entry): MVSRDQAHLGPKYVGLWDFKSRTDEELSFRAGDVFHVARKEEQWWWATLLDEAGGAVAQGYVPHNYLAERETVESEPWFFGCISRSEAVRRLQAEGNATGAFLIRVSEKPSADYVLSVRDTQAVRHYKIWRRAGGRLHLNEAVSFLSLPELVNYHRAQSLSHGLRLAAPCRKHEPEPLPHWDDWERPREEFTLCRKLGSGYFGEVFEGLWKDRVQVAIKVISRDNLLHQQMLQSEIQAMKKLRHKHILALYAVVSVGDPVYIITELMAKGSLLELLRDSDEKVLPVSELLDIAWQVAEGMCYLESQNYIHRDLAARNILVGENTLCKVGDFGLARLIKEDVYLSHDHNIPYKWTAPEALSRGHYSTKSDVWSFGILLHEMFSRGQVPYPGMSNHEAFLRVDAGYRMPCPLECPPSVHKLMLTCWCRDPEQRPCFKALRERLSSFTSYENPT
Chain of MET (P08581 whole entry): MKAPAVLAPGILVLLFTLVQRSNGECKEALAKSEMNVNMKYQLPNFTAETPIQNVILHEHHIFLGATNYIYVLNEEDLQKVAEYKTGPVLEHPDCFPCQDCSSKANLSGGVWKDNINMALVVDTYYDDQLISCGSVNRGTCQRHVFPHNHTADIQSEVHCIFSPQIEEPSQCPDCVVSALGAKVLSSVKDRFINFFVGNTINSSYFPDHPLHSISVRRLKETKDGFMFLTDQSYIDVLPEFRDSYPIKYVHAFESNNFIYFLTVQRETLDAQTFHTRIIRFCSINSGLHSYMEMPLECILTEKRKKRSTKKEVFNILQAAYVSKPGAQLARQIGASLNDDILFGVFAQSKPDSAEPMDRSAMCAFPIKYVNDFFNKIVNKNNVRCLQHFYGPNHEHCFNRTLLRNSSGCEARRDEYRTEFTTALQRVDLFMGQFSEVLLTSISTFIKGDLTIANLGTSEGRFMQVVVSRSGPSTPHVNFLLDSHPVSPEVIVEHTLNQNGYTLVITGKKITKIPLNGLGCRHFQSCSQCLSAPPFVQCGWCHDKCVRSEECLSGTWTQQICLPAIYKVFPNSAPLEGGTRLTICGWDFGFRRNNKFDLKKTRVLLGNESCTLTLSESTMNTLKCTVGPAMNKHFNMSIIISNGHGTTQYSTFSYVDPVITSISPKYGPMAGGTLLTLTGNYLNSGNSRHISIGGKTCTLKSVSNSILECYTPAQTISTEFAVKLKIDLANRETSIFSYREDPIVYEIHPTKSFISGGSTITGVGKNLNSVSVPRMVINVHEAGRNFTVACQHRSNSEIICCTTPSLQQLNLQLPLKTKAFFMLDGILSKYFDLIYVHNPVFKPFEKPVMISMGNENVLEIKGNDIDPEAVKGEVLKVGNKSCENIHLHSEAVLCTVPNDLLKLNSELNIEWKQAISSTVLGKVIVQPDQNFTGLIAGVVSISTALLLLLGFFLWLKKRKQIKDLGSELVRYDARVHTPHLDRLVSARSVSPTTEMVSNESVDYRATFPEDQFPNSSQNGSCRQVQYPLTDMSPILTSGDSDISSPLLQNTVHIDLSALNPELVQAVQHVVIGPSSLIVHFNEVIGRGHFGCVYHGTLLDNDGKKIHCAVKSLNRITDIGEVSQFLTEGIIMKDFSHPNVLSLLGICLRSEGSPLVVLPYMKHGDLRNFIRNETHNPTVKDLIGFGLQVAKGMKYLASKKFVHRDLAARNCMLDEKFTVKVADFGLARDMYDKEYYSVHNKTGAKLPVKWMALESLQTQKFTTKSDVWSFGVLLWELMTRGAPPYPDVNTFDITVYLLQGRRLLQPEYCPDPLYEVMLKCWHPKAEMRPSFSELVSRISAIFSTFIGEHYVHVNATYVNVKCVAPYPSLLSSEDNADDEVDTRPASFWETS
T9 sequence (O15075 whole entry): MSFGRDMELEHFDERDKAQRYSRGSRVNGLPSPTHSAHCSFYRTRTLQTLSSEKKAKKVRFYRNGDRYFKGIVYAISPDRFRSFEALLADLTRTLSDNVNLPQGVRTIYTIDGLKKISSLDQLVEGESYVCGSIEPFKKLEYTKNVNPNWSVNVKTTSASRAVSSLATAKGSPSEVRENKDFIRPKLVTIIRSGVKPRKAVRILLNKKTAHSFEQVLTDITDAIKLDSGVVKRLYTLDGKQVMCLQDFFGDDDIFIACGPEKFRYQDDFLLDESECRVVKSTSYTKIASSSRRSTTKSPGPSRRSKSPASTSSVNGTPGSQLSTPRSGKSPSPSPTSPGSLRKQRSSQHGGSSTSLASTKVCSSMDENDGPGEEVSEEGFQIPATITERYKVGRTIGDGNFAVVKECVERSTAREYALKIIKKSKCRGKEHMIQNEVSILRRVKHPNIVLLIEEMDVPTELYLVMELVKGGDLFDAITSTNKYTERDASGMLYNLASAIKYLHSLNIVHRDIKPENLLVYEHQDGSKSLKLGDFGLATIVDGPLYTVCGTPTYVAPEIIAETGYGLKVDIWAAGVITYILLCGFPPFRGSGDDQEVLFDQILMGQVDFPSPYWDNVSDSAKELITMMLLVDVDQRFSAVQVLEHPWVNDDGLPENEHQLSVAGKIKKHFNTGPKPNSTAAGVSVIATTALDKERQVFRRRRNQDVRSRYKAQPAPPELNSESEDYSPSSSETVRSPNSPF

As for `COc1ccc(-c2cnccc2-c2cnc(NC(=O)C(C)C)s2)c(C(F)(F)F)c1` [CRT0105446, N-{5-[3-(4-Methoxy-2-trifluoromethyl-phenyl)-pyridin-4-yl]-hiazol-2-yl}-isobutyramide], the remaining binding at 10 µM at MKK7 was found to be 97%; in test [1], 100%; in test [2], 89%; on MELK it was 100%; at ERN1 it was 87%; at MINK it was 100%. Besides, the remaining binding at 10 µM on BRK amounted to 100%; at PIP5K2B, 100%; on MST2 it was 100%; at PIK3CA(E545K), 97%; at MAST1 it was 68%; at PRKCD, 90%. Also, the remaining binding at 10 µM was 95% at NEK6; 100% on LOK; 80% at PAK2; 100% on PRKG1; 100% on EPHA8; 72% at CAMK2D. The remaining binding at 10 µM at DCAMKL1 turned out to be 46%; in test [3] it was 83%; on MET, 80%; on p38-beta, 100%; on PFPK5(P.falciparum) it was 100%.
On to `Cc1ccc(-c2cnccc2-c2cnc(Nc3ccc(O)cc3)s2)c(Cl)c1` [CRT0105950, 4-{5-[3-(2-Chloro-4-methyl-phenyl)-pyridin-4-yl]-thiazol-2-ylamino}-phenol], for which the remaining binding at 10 µM on MKK7 was 38%; in [1] it was 19%; in test [2], 50%; at MELK it was 11%; at ERN1, 68%; on MINK, 13%. Besides, the remaining binding at 10 µM at BRK was determined as 100%; at PIP5K2B it was 44%; at MST2 it was 0.7%; at PIK3CA(E545K), 100%; on MAST1, 84%; on PRKCD, 76%. Moreover, the remaining binding at 10 µM at NEK6 amounted to 100%; at LOK, 51%; at PAK2 it was 76%; on PRKG1, 72%; at EPHA8 it was 88%; at CAMK2D, 29%. Moreover, the remaining binding at 10 µM was 75% on DCAMKL1; 66% in [3]; 16% on MET; 93% at p38-beta; 84% at PFPK5(P.falciparum).
